# Measured values as given in patent US10450327B2, “Epidithiodioxopiperazine compound or its derivatives, and the use thereof” (priority 2011, dated 2019).
# “Also recorded” adds a separate entry of the source.
# System: yeast thioredoxin (Trx) / yeast thioredoxin reductase (TR) system
# Assay: Peroxidase activity assay (hydrogen peroxide reduction), Trx/TR system
# Assay type: biochemical
# Settings: not given
# Experimental: The peroxidase activity assay for the epidithiodioxopiperazine derivatives according to the present invention (hereinafter, referred to as ETP compounds) was performed according to known methods [Korean Patent No. 10-0953326]. A standard peroxidase reaction for spectrophotometric assay was carried out using a 200 μl reaction mixture of 1 mM EDTA-containing 50 mM Hepes-NaOH buffer solution (pH 7.0) including 250 μM NADPH, 3 μM yeast thioredoxin (Trx), 1.5 μM yeast thioredoxin reductase (TR), 25 μM ETP compound and […] of hydrogen peroxide. For the comparison with a glutathione (GSH)-dependent peroxidase reaction, GSH (1 mM) and yeast glutathione reductase (GSH reductase; GR) (1 Unit) were added instead of yeast Trx and TR. Each reaction was initiated by adding hydrogen peroxide, and the NADPH oxidation was monitored for 12 minutes at 30° C. according to absorbance decrease at 340 nm using an Agilent UV8453 spectrophotometer (Hewlett Packard, USA). The initial reaction rate was calculated using the linear portion of the curve and expressed as the amount of NADPH oxidized per minute.
# The chemical feature of the epidithiodioxopiperazine compound of the present invention or its derivatives is the intramolecular disulfide bridge present in the epidithiodioxopiperazine ring moiety. Cellular peroxidase reduces hydrogen peroxide utilizing the electrons derived from NADPH via two electron-transfer routes, that is, Trx/TR or GSH/GR, therefore, spectrophotometric assay was performed for the hydrogen peroxide-reducing activity in the presence of each system, and the results are shown in FIGS. 1 to 5.
SMILES,initial reaction rate for hydrogen peroxide reduction compared to the corresponding oxidized type,"hydrogen peroxide-reducing (peroxidase) activity in the presence of a Trx/TR system, in words"
"CN1C(=O)C(S)N(C)C(=O)C1S (centres unmarked) [Compound A2R, 3,6-dimercapto-1,4-dimethylpiperazine-2,5-dione]",higher intial reaction rates,
"C=CCN1C(=O)C(S)N(CC=C)C(=O)C1S (centres unmarked) [Compound A5R, 3,6-dimercapto-1,4-diallylpiperazine-2,5-dione]",higher intial reaction rates,
"CS[C@]1(CO)C(=O)N2[C@H]3C(=CC=C[C@@H]3O)C[C@@]2(SC)C(=O)N1C [bis(methylthio)gliotoxin, Bis(methylthio)gliotoxin]",,not observed

# System: balloon-injured rat carotid artery
# Assay: Balloon-injury model of rat carotid artery
# Assay type: in vivo
# Settings: local administration to the lumen through catheter, 30 minutes; ETP derivatives 200 nM; 10 days recovery
# Experimental: Animal experiments were performed in compliance with the guidelines of Institutional Animal Care and Use Committee (IACUC) of the Ewha Womans University. Balloon injury was created using an infiltrated 2 F Fogarty balloon catheter in the left common carotid artery as follows: after the ten-week-old male Sprague-Dawley rats were anaesthetized by isoflurane gas (N2O:O2/70%:30%) inhalation, the left external carotid artery was exposed, and its branches were electrocoagulated. A catheter was pushed 1 cm in through the transverse arteriotomy of the external carotid artery, and the endothelial denudation was achieved by three passes along the common carotid artery. After the catheter was removed, the punched area was sealed and the clapped common carotid artery was opened for resuming the blood flow. Unless otherwise stated, the rats were recovered in a cage for 10 days, and subjected to histological and immunological analyses.
# Rats were anesthetized, and the common carotid artery was excised after transcardiac perfusion-fixation with a heparinized saline solution containing 3.7% formaldehyde. The vessels were paraffin embedded and sectioned using a rotary microtome (Leica RM2255). Two serial tissue sections (4 μm in thickness) were obtained from the middle area of common carotid arteries, and stained with haematoxylin and eosin (HE). The luminal, internal elastic laminal, and external elastic laminal areas were measured using NIH Image v1.62. The intimal and medial areas were determined by subtracting the luminal area from the internal elastic area and subtracting the internal elastic area from the external elastic area. The values from the two serial sections for each rat were averaged for analysis.
# For the in vivo injection of siRNA, a siRNA mixture specific to rat PrxII (200 nM) was premixed with a siPORT™ NeoFX™ reagent according to the instructions of the manufacturer (Ambion). Immediately after the balloon injury, the siRNA-injected mixture (200 μL) was injected through a catheter after briefly washed with Opti-MEM. After the incubation for 15 minutes, the blood flow was resumed. A siGLO-Red (Dharmacon), which is fluorescent dye-conjugated control siRNA, was used for optimizing in vivo injection efficiency. Similarly, the ETP compound (200 nM in DMSO) was injected through a catheter and incubated for 30 minutes.
# Immunohistochemistry for the overoxidized 2-Cys Prxs was performed on the paraffin sections using an anti-Prx-SO2/3 antibody (1:1000 dilution). Briefly, the sections were de-waxed in xylene and rehydrated in ethanol, and subsequently the antigen retrieval was performed by boiling in a citric buffer solution (pH 6.0). After that, the sections were incubated with a primary antibody for 48 hours at 4° C. After washing three times with a phosphatebuffered saline solution, the sections were incubated with a peroxidase-conjugated secondary antibody and stained with a 3′,3′-diaminobenzidine (DAB) substrate solution. For negative staining, the Prx-502/3 antibody was blocked with the corresponding antigenic peptide (DFTFVC(SO2/3)PTEI). For indirect immunofluorescence staining, the paraffin sections were blocked with 5% normal rabbit serum (Vector Laboratories) in PBST (a PBS solution of 0.3% Triton X-100) for 1 hour at room temperature. The sections were then incubated overnight at 4° C. with the […] against rat smooth muscle α-actin (1:300 dilution) and rat CD31 (PECAM-1, 1:200 dilution). The nuclei were labeled with DAPI. After several PBST washes, the samples were incubated for 2 hours at room temperature with Alexa Fluor 568-conjugated donkey anti-mouse and Alexa Fluor 488-conjugated donkey anti-rabbit IgG antibodies. The fluorescence images were recorded on three random fields per tissue section at a screen magnification of 100× using a LSM 510 Meta confocal microscope equipped with argon and helium-neon lasers.
# The paraffin sections were incubated for 10 minutes in PBS containing 0.1% Triton X-100. […]
row,SMILES,"intimal hyperplasia (ratio of intima versus media, HE staining)"
1,"CS[C@]1(CO)C(=O)N2[C@H]3C(=CC=C[C@@H]3O)C[C@@]2(SC)C(=O)N1C [bis(methylthio)gliotoxin, Bis(methylthio)gliotoxin]",did not suppress

# System: HAECs
# Assay: not given
# Assay type: cell-based, human
# Settings: up to 50 nM (100 nM for A4, A7, A9)
# Experimental: For cell proliferation assay, HAECs were divided at a concentration of 4000 cells/well in a final volume of 100 μl onto a 96-well plate including a siRNA-transfection reagent mixture. After siRNA-transfected for 24 hours, the cells were serum-starved for 18 hours, and then placed in an EBM-2 basal medium supplemented with VEGF-A165 (25 ng/ml, Cat no. 293-VE, R&D systems) for additional 24 hours. The extent of cell proliferation was measured using a WST-1 cell proliferation assay kit (Roche Diagnostics, USA), and the number of cells was expressed as absorbance at 450 nm, which was averaged from 3 wells after subtracting the turbidity at 600 nm.
# The cell migration assay was performed in a 24-well Transwell culture chamber (Costar; 8-μm pore size). The bottom of the filter was coated with gelatin B (1 mg/ml) and air-dried for 1 hour. HAECs (6×10^3) were added to upper chambers including siRNA-transfection complexes. After 24 hours, the siRNA-transfected HAECs were serum-starved overnight. A solution of VEGF-A (25 ng/ml) was prepared in a basal medium including 0.5% bovine serum albumin (BSA), and added to bottom chambers. The upper chamber wells were each filled with a basal medium including 0.5% BSA. The Transwell chamber was incubated for 8 hours under the condition of 37° C./5% carbon dioxide. After the incubation, the non-migrated cells at the top of the filter were removed, and the cells that migrated onto the bottom of filter were fixed and stained with 0.6% hematoxylin and 0.5% eosin. The stained cells were photographed and counted. The number of migrating cells was averaged from 3 wells.
row,SMILES,"VEGF-induced proliferation and chemotactic transmigration of HAECs, impaired by PrxII knockdown"
1,"O=C1NC2SSC1NC2=O [Compound A1, 2,3-dithia-5,7-diazabicyclo[2.2.2]octane-6,8-dione]",excellent activities
2,"CN1C(=O)C2SSC1C(=O)N2C [Compound A2, 5,7-dimethyl-2,3-dithia-5,7-diazabicyclo[2.2.2]-octane-6,8-dione]",excellent activities
3,"CN1C(=O)C(S)N(C)C(=O)C1S (centres unmarked) [Compound A2R, 3,6-dimercapto-1,4-dimethylpiperazine-2,5-dione]",no significant changes
4,"CN1C(=O)C2(C)SSC1C(=O)N2C (centres unmarked) [Compound A3, 1,5,7-trimethyl-2,3-dithia-5,7-diazabicyclo[2.2.2]octane-6,8-dione]",excellent activities
5,"COc1ccc(CN2C(=O)C3SSC2C(=O)N3Cc2ccc(OC)cc2)cc1 [Compound A4, 5,7-bis(4-methoxybenzyl)-2,3-dithia-5,7-diazabicyclo[2.2.2]octane-6,8-dione]",insignificant activities; also recorded: low activities
6,"C=CCN1C(=O)C2SSC1C(=O)N2CC=C [Compound A5, 5,7-diallyl-2,3-dithia-5,7-diazabicyclo[2.2.2]octane-6,8-dione]",excellent activities
7,"C=CCN1C(=O)C(S)N(CC=C)C(=O)C1S (centres unmarked) [Compound A5R, 3,6-dimercapto-1,4-diallylpiperazine-2,5-dione]",no significant changes
8,"COc1ccc(CN2C(=O)C3NC(=O)C2SS3)cc1 (centres unmarked) [Compound A6, 5-(4-methoxybenzyl)-2,3-dithia-5,7-diazabicyclo[2.2.2]octane-6,8-dione]",moderate activities
9,"O=C1C2SSC(C(=O)N2C(c2ccccc2)c2ccccc2)N1C(c1ccccc1)c1ccccc1 [Compound A7, 5,7-dibenzhydryl-2,3-dithia-5,7-diazabicyclo[2.2.2]octane-6,8-dione]",insignificant activities; also recorded: low activities
10,"CCCCN1C(=O)C2SSC1C(=O)N2CCCC [Compound A8, 5,7-dibutyl-2,3-dithia-5,7-diazabicyclo[2.2.2]octane-6,8-dione]",excellent activities
11,"COCCCN1C(=O)C2SSC1C(=O)N2CCCOC [Compound A9, 5,7-bis(3-methoxypropyl)-2,3-dithia-5,7-diazabicyclo[2.2.2]octane-6,8-dione]",insignificant activities; also recorded: moderate activities

# System: HASMCs
# Assay: not given
# Assay type: cell-based, human
# Settings: up to 100 nM (200 nM for A4, A7, A9)
row,SMILES,"proliferation and chemotactic transmigration of HASMCs in response to PDGF, enhanced by PrxII knockdown"
1,"O=C1NC2SSC1NC2=O [Compound A1, 2,3-dithia-5,7-diazabicyclo[2.2.2]octane-6,8-dione]",excellent activities
2,"CN1C(=O)C2SSC1C(=O)N2C [Compound A2, 5,7-dimethyl-2,3-dithia-5,7-diazabicyclo[2.2.2]-octane-6,8-dione]",excellent activities
3,"CN1C(=O)C(S)N(C)C(=O)C1S (centres unmarked) [Compound A2R, 3,6-dimercapto-1,4-dimethylpiperazine-2,5-dione]",no significant changes
4,"CN1C(=O)C2(C)SSC1C(=O)N2C (centres unmarked) [Compound A3, 1,5,7-trimethyl-2,3-dithia-5,7-diazabicyclo[2.2.2]octane-6,8-dione]",excellent activities
5,"COc1ccc(CN2C(=O)C3SSC2C(=O)N3Cc2ccc(OC)cc2)cc1 [Compound A4, 5,7-bis(4-methoxybenzyl)-2,3-dithia-5,7-diazabicyclo[2.2.2]octane-6,8-dione]",insignificant activities; also recorded: low activities
6,"C=CCN1C(=O)C2SSC1C(=O)N2CC=C [Compound A5, 5,7-diallyl-2,3-dithia-5,7-diazabicyclo[2.2.2]octane-6,8-dione]",excellent activities
7,"C=CCN1C(=O)C(S)N(CC=C)C(=O)C1S (centres unmarked) [Compound A5R, 3,6-dimercapto-1,4-diallylpiperazine-2,5-dione]",no significant changes
8,"COc1ccc(CN2C(=O)C3NC(=O)C2SS3)cc1 (centres unmarked) [Compound A6, 5-(4-methoxybenzyl)-2,3-dithia-5,7-diazabicyclo[2.2.2]octane-6,8-dione]",moderate activities
9,"O=C1C2SSC(C(=O)N2C(c2ccccc2)c2ccccc2)N1C(c1ccccc1)c1ccccc1 [Compound A7, 5,7-dibenzhydryl-2,3-dithia-5,7-diazabicyclo[2.2.2]octane-6,8-dione]",insignificant activities; also recorded: low activities
10,"CCCCN1C(=O)C2SSC1C(=O)N2CCCC [Compound A8, 5,7-dibutyl-2,3-dithia-5,7-diazabicyclo[2.2.2]octane-6,8-dione]",excellent activities
11,"COCCCN1C(=O)C2SSC1C(=O)N2CCCOC [Compound A9, 5,7-bis(3-methoxypropyl)-2,3-dithia-5,7-diazabicyclo[2.2.2]octane-6,8-dione]",insignificant activities; also recorded: moderate activities
